Test results published in US10668079B2, “Composition composed of ceftriaxone sodium and sulbactum sodium” (XIANGBEI WELMAN PHARMACEUTICAL CO., LTD., priority 2016, dated 2020).
Structures can show the parent of a compound that is named as a salt.

How the values were obtained:
Test in all cases: In vivo antibacterial test (animal protection test, septicemia mouse model)
[1] = system: QS-R (ceftriaxone-resistant Neisseria gonorrhoeae); settings: sc, strain QS-R, ICR mice
Method: (§1) The stability test samples in test example 1 were sampled at 0th month and subjected to in vivo antibacterial test; and the stability test samples were sampled at 30th month again, and subjected to in vivo antibacterial test. The in vivo antibacterial tests were performed according to the following method.
(§2) Test Samples: Compositions I to VIII, Sterile Powder for Injection I, Sterile Powder for Injection II, Sterile Powder for Injection IV, Lyophilized Powder for Injection I, Lyophilized Powder for Injection II, Lyophilized Powder for Injection A, Sterile Powder for Injection A and Sterile Powder for Injection B, all of which were obtained from the test example 1 at 0th and 30th month; and control drugs: ceftriaxone sodium, levofloxacin hydrochloride, azithromycin, doxycycline hydrochloride and spectinomycin hydrochloride, wherein, a batch of the control drugs were purchased at 0th month of the stability test so as to match with the test samples at 0th month, and another batch of control drugs were purchased at 30th month of the stability test so as to match with the test samples at 30th month, and the time when the two batches were purchased was within one month from the date of their production.
(§3) Animals: ICR mice weighed 18-22 g, half male and half female.
(§4) Strains: ATCC700603 (Klebsiella pneumoniae), ATCC43069 (Neisseria gonorrhoeae), Q-R (quinolone-resistant Neisseria gonorrhoeae), T-R (tetracycline-resistant Neisseria gonorrhoeae), PP-R (β-lactam-resistant Neisseria gonorrhoeae), MAC-R (macrolide-resistant Neisseria gonorrhoeae), SPE-R (spectinomycin-resistant Neisseria gonorrhoeae) and QS-R (ceftriaxone-resistant Neisseria gonorrhoeae), wherein, ATCC700603, and ATCC43069 were purchased from ATCC; QS-R was prepared by in vitro inducing Neisseria gonorrhoeae, which was sensitive to ceftriaxone, with a subinhibitory concentration of ceftriaxone, culturing at 36° C., 5% CO2, passaging once every 24 hours, and then transferring to a higher concentration of ceftriaxone on GC medium until the strain was resistant to ceftriaxone; and other strains were clinical isolates.
(§5) Aseptic thoracotomy was performed timely on the mice died of infection, the heart blood or intracavity effusion was taken and evenly coated on corresponding agar plates, and incubated for 18 hours at 37° C. […] The obtained strain was used to infect mice again.
(§6) After infection, the number of dead mice was recorded. The minimum dose causing 100% death of mice was 1 MLD, and was used as the dose in animal protection experiments. The bacterial concentration, which was one log lower than 1 MLD and infected the animals without mortality, was named 0.1 MLD. In experiments, a bacteria concentration of 1 MLD was used as the positive control for the infection experiments; and a bacteria concentration of 0.1 MLD was used as the negative control for the infection. In both positive and negative control groups, only the bacteria were administrated and no antibiotic treatment was provided. The mortality of the positive group should be 70% or more, and the mortality of the negative group should be 30% or less.
(§7) When the administration dosage was investigated first, there may be relatively great differences between the dose concentrations of the groups. When the range of the administration dosage was determined, it may be further investigated by reducing the differences until the suitable administration dosage (that is, for the group administrated with the highest concentration, 70% or more infected animals survived; and for the group administrated with the lowest concentration, no less than 70% of infected animals died) was found.

[2] = system: Q-R (quinolone-resistant Neisseria gonorrhoeae); settings: sc, strain Q-R, ICR mice
Method: as §1, §2, §3, §4, §5, §6, §7

[3] = system: PP-R (β-lactam-resistant Neisseria gonorrhoeae); settings: sc, strain PP-R, ICR mice
Method: as §1, §2, §3, §4, §5, §6, §7

[4] = system: ATCC43069 (Neisseria gonorrhoeae); settings: ATCC43069, sc, ICR mice
Method: as §1, §2, §3, §4, §5, §6, §7

[5] = system: T-R (tetracycline-resistant Neisseria gonorrhoeae); settings: sc, strain T-R, ICR mice
Method: as §1, §2, §3, §4, §5, §6, §7

[6] = system: MAC-R (macrolide-resistant Neisseria gonorrhoeae); settings: sc, strain MAC-R, ICR mice
Method: as §1, §2, §3, §4, §5, §6, §7

[7] = system: SPE-R (spectinomycin-resistant Neisseria gonorrhoeae); settings: sc, strain SPE-R, ICR mice
Method: as §1, §2, §3, §4, §5, §6, §7

[8] = system: ATCC700603 (Klebsiella pneumoniae); settings: ATCC700603, sc, ICR mice
Method: as §1, §2, §3, §4, §5, §6, §7

[9] = samples at 0th month of the stability test, subcutaneous immediately and after 6 hours, 7 days observation
[10] = samples at 30th month of the stability test (control drugs: batch purchased at 30th month), subcutaneous
[11] = strain ATCC 43069, samples at 0th month of the stability test, subcutaneous immediately and after 6 hours, 7 days observation
[12] = strain ATCC 43069, samples at 30th month of the stability test (control drugs: batch purchased at 30th month), subcutaneous

C[C@H]1COc2c(N3CCN(C)CC3)c(F)cc3c(=O)c(C(=O)O)cn1c23 [Levofloxacin Hydrochloride, levofloxacin hydrochloride]
ED50 [1, 9]: 72 mg/kg
ED50 [1, 10]: 82 mg/kg
ED50 [2, 9]: 573 mg/kg
ED50 [2, 10]: 564 mg/kg
ED50 [3, 9]: 37 mg/kg
ED50 [3, 10]: 42 mg/kg
ED50 [4, 11]: 25 mg/kg
ED50 [4, 12]: 30 mg/kg
ED50 [5, 9]: 48 mg/kg
ED50 [5, 10]: 43 mg/kg
ED50 [6, 9]: 36 mg/kg
ED50 [6, 10]: 41 mg/kg
ED50 [7, 9]: 67 mg/kg
ED50 [7, 10]: 72 mg/kg

CN[C@@H]1[C@H](O)[C@H](NC)[C@H]2O[C@@]3(O)C(=O)C[C@@H](C)O[C@H]3O[C@@H]2[C@H]1O [Spectinomycin Hydrochloride, spectinomycin hydrochloride]
ED50 [1, 9]: 41 mg/kg
ED50 [1, 10]: 56 mg/kg
ED50 [2, 9]: 40 mg/kg
ED50 [2, 10]: 42 mg/kg
ED50 [3, 9]: 56 mg/kg
ED50 [3, 10]: 67 mg/kg
ED50 [4, 11]: 19 mg/kg
ED50 [4, 12]: 22 mg/kg
ED50 [5, 9]: 61 mg/kg
ED50 [5, 10]: 68 mg/kg
ED50 [6, 9]: 38 mg/kg
ED50 [6, 10]: 42 mg/kg
ED50 [7, 9]: 621 mg/kg
ED50 [7, 10]: 571 mg/kg

C[C@H]1c2cccc(O)c2C(=O)C2=C(O)[C@]3(O)C(=O)C(C(N)=O)=C(O)[C@@H](N(C)C)[C@@H]3[C@@H](O)[C@@H]21 [Doxycycline Hydrochloride, doxycycline hydrochloride]
ED50 [1, 9]: 105 mg/kg
ED50 [1, 10]: 99 mg/kg
ED50 [2, 9]: 55 mg/kg
ED50 [2, 10]: 51 mg/kg
ED50 [3, 9]: 52 mg/kg
ED50 [3, 10]: 47 mg/kg
ED50 [4, 11]: 37 mg/kg
ED50 [4, 12]: 32 mg/kg
ED50 [5, 9]: 456 mg/kg
ED50 [5, 10]: 432 mg/kg
ED50 [6, 9]: 58 mg/kg
ED50 [6, 10]: 62 mg/kg
ED50 [7, 9]: 52 mg/kg
ED50 [7, 10]: 51 mg/kg

CO/N=C(\C(=O)N[C@@H]1C(=O)N2C(C(=O)O)=C(CSc3nc(=O)c(=O)[nH]n3C)CS[C@H]12)c1csc(N)n1 [Ceftriaxone Sodium, ceftriaxone sodium]
ED50 ([8]; strain ATCC 700603, samples at 0th month of the stability test, subcutaneous immediately and after 6 hours, 7 days observation): 35 mg/kg
ED50 ([8]; strain ATCC 700603, samples at 30th month of the stability test (control drugs: batch purchased at 30th month), subcutaneous): 37 mg/kg
ED50 [1, 9]: 337 mg/kg
ED50 [1, 10]: 373 mg/kg
ED50 [2, 9]: 31 mg/kg
ED50 [2, 10]: 30 mg/kg
ED50 [3, 9]: 208 mg/kg
ED50 [3, 10]: 224 mg/kg
ED50 [4, 11]: 16 mg/kg
ED50 [4, 12]: 21 mg/kg
ED50 [5, 9]: 46 mg/kg
ED50 [5, 10]: 57 mg/kg
ED50 [6, 9]: 34 mg/kg
ED50 [6, 10]: 37 mg/kg
ED50 [7, 9]: 52 mg/kg
ED50 [7, 10]: 66 mg/kg

CC[C@H]1OC(=O)[C@H](C)[C@@H](O[C@H]2C[C@@](C)(OC)[C@@H](O)[C@H](C)O2)[C@H](C)[C@@H](O[C@@H]2O[C@H](C)C[C@H](N(C)C)[C@H]2O)[C@](C)(O)C[C@@H](C)CN(C)[C@H](C)[C@@H](O)[C@]1(C)O [Azithromycin, azithromycin]
ED50 [1, 9]: 63 mg/kg
ED50 [1, 10]: 69 mg/kg
ED50 [2, 9]: 43 mg/kg
ED50 [2, 10]: 40 mg/kg
ED50 [3, 9]: 49 mg/kg
ED50 [3, 10]: 55 mg/kg
ED50 [4, 11]: 24 mg/kg
ED50 [4, 12]: 31 mg/kg
ED50 [5, 9]: 62 mg/kg
ED50 [5, 10]: 59 mg/kg
ED50 [6, 9]: 487 mg/kg
ED50 [6, 10]: 497 mg/kg
ED50 [7, 9]: 59 mg/kg
ED50 [7, 10]: 65 mg/kg
